“And” between values parts separate entries of the source, which are not always exact repeats. Identical values can stand only once.
What was measured:
KMP organoids = assay: cell viability in KMP organoids; assay type: cell-based, mouse
Experimental: (§1) A total of 1,000–2,000 single cells were plated per well in white 96-well plates (Greiner) in culture medium containing 10% GFR Matrigel or Cultrex BME. The treatment with doxycycline (5 µg ml^−1), pharmacological inhibitors or corresponding volumes of DMSO was started 24 h after plating. Doxycycline was obtained from Sigma-Aldrich. […] Results were normalized to vehicle (DMSO) or to shNC. For cell-doubling assays, the cell number was quantified at the corresponding time points using Guava EasyCyte flow cytometer (Luminex, CytoSoft v5.2 software).

BAP organoids = assay: cell viability in BAP organoids; assay type: cell-based, mouse; conditions: for Cell viability (%): Fig. 2j, replicates
Experimental: as §1

PDO1 = assay: cell viability in patient-derived CRC organoids PDO1; assay type: cell-based, human; conditions: Fig. 3b, replicates
Experimental: (§2) For in vitro treatment studies, organoids were mechanically dissociated and digested using TrypLE supplemented with 100 µg ml^−1 DNaseI and 10.5 µM Y-27632 dihydrochloride (Invitrogen) at 37 °C. A total of 1,000–2,000 single cells were plated per well in white 96-well plates (Greiner) in culture medium containing 10% GFR Matrigel or Cultrex BME. The treatment with doxycycline (5 µg ml^−1), pharmacological inhibitors or corresponding volumes of DMSO was started 24 h after plating. Doxycycline was obtained from Sigma-Aldrich. […] Cell viability was measured by means of CellTiter-Glo 3D or CellTiter-Glo 2.0 reagent (Promega) according to the manufacturers’ instructions and the Infinite M Plex reader (Tecan, i-control version 3.9.1 software). Results were normalized to vehicle (DMSO) or to shNC. For cell-doubling assays, the cell number was quantified at the corresponding time points using Guava EasyCyte flow cytometer (Luminex, CytoSoft v5.2 software).

PDO2 = assay: cell viability in patient-derived CRC organoids PDO2; assay type: cell-based, human; conditions: Fig. 3c, replicates
Experimental: as §2

PDO3 = assay: cell viability in patient-derived CRC organoids PDO3; assay type: cell-based, human; conditions: Fig. 3d, replicates
Experimental: as §2

PDO13 = assay: cell viability in patient-derived CRC organoids PDO13; assay type: cell-based, human
Experimental: as §2

HCT-15 = assay: cell viability in human CRC cell line HCT-15; assay type: cell-based; conditions: 4 d
Experimental: To generate KAP^2D cells, KAP organoids were isolated from Matrigel, fragmented by mechanical dissociation and plated without any extracellular matrix on common cell culture dishes. Phoenix-Eco packaging cells (CRL-3214), HCT-15 (CCL-225), HCT 116 (CCL-247), COLO 205 (CCL-222), LS 174T (CL-188), RKO (CRL-2577) and HT-29 (HTB-38) were obtained from the American Type Culture Collection. The cells were cultured at 37 °C and 7% CO2 with RPMI (KAP^2D cells) or DMEM (other cell lines), supplemented with 10% FBS and penicillin–streptomycin. KAP^2D cells were authenticated using PCR (Kras locus and Trp53 locus). Phoenix-Eco packaging cells and HCT-15, HCT 116, COLO 205, LS 174T, RKO and HT-29 cells were authenticated by the provider using short tandem repeat profiling. No commonly misidentified cell lines were used. Mycoplasma contamination was excluded by a PCR-based analysis.
as §2

KAP^2D cells [1] = assay: quantification of viable KAP^2D cells over time (cell-doubling assay); assay type: cell-based, mouse; conditions: Fig. 4i
Experimental: The treatment with doxycycline (5 µg ml^−1), pharmacological inhibitors or corresponding volumes of DMSO was started 24 h after plating. […] Cell viability was measured by means of CellTiter-Glo 3D or CellTiter-Glo 2.0 reagent (Promega) according to the manufacturers’ instructions and the Infinite M Plex reader (Tecan, i-control version 3.9.1 software). Results were normalized to vehicle (DMSO) or to shNC. For cell-doubling assays, the cell number was quantified at the corresponding time points using Guava EasyCyte flow cytometer (Luminex, CytoSoft v5.2 software).

KAP^2D cells [2] = assay: annexin V apoptosis analysis in KAP^2D cells; assay type: cell-based, mouse; conditions: Fig. 5a
Experimental: Apoptosis was analyzed with the FITC annexin V apoptosis detection kit (Biolegend). Both measurements were performed with FACS Canto II (BD) and physical parameters were used to exclude cell debris and cell doublets.

[3] = in vivo pharmacokinetic studies in mice (plasma, LC-MS); set-up: species or system mouse
Experimental: No mice were excluded during treatment studies. […] GFP imaging of tumors was performed using a Hamamatsu imaging system. For quantification of compounds in the murine plasma, 20 μl of tail-vein blood was diluted with 80 μl of heparin solution, before 200 μl of ice-cold acetonitrile with a defined internal standard was added. The samples were sonicated and centrifuged and the supernatant was subjected to liquid chromatography-mass spectrometry quantification. Full blood analyses were performed with the Sysmex KX-21N hematology analyzer.

[4] = mouse, plasma, oral administration in mice, 20 mg kg^−1
[5] = oral administration in mice, 20 mg kg^−1

In the case of `O=C(NCCN1CCOCC1)c1ccc2c(c1)C(=O)c1ccc(Nc3ccc(F)c(NC(=O)c4ccccc4)c3)cc1CC2` [Compound 1639], the “therapeutic effect in KMP organoids (in words)” value (KMP organoids; 4 days) is reported as “no therapeutic effects”, the “Cell viability (%)” value (KMP organoids; Fig. 2i, 0,5 µM, replicates, 5 µM) is reported as 101.57% and 92.29% and the “Cell viability (%)” value (KMP organoids; Fig. 2i, 0,25 µM, replicates) is reported as 98.98% and 85.31% and 57.91%. The “Cell viability (%)” value (KMP organoids; Fig. 2i, 1 µM, replicates) was 98.40% and 93.50%, the viability at 5 µM (KMP organoids; Mus musculus, Fig. 2i, 0,5 µM, replicates) was 85.5% and the viability at 1 µM (KMP organoids; Mus musculus, Fig. 2i, 1 µM, replicates) was 105%. For the same compound, the “therapeutic effect in BAP organoids (in words)” value (BAP organoids; 4 days) was “no therapeutic effects”, the “Cell viability (%)” value (BAP organoids; 0,5 µM, 5 µM) was 89.71% and 139.45% and 151.95% and the “Cell viability (%)” value (BAP organoids; 0,25 µM) was 99.59% and 127.60% and 118.40%. For the same compound, the “Cell viability (%)” value (BAP organoids; 1 µM) was 87.55% and 125.47% and 95.41%, the “Cell viability (%)” value (PDO1; 0.5 µM) was 106.52% and 84.18% and 86.35% and the “Cell viability (%)” value (PDO1; 1 µM) was 70.08% and 65.69%. The viability at 1 µM (PDO1; Homo sapiens, 1 µM) was 63%, the “Cell viability (%)” value (PDO2; 0,5 µM, 5 µM) was 69.57% and 95.69% and 90.88% and the “Cell viability (%)” value (PDO2; 0,25 µM) was 93.94% and 86.22% and 63.24%. The “Cell viability (%)” value (PDO2; 1 µM) was 53.19% and 51.96%, the viability at 1 µM (PDO2; Homo sapiens, 1 µM) was 68.7% and the “Cell viability (%)” value (PDO3; 0,5 µM, 5 µM) was 112.45% and 94.73% and 79.47%. The “Cell viability (%)” value (PDO3; 0,25 µM, 25 µM) was 111.26% and 82.86% and 90.87%, the “Cell viability (%)” value (PDO3; 1 µM) was 101.94% and 81.53% and 90.79% and the viability at 0.5 µM (PDO13; Homo sapiens, 96 h, PDO13, 0.5 µM, 4 d, read-out: Cell viability (%)) was 93.8%. The viability at 1 µM (PDO13; Homo sapiens, 96 h, PDO13, 1 µM, 4 days, read-out: Cell viability (%)) was 84.5%, the “Cell viability (%)” value (PDO13; PDO13, 0.5 µM, 4 d, 0.5 µM) was 111.59% and 96.20% and the “Cell viability (%)” value (PDO13; PDO13, 1 µM, 4 days, 1 µM) was 86.80% and 77.48%. The “HCT-15 Cell viability (%)” value (HCT-15; 0.0137 µM) was 92.80% and 91.50% and 85.00% and 82.22% and 80.95%, the “HCT-15 Cell viability (%)” value (HCT-15; 0.0412 µM) was 78.90% and 80.07% and 94.65% and 93.32% and 92.61% and the “HCT-15 Cell viability (%)” value (HCT-15; 0.1235 µM) was 84.07% and 87.40% and 91.28% and 90.94% and 89.46%. For the same compound, the “HCT-15 Cell viability (%)” value (HCT-15; 0.3704 µM) was 84.12% and 88.83% and 87.00% and 85.77% and 86.10%, the “HCT-15 Cell viability (%)” value (HCT-15; 1.1111 µM) was 77.30% and 80.39% and 72.06% and 72.72% and 71.41% and the “HCT-15 Cell viability (%)” value (HCT-15; 3.3333 µM) was 62.02% and 64.03% and 55.98% and 56.04% and 55.89%. The “HCT-15 Cell viability (%)” value (HCT-15; 10.0000 µM) was 36.90% and 37.04% and 27.63% and 27.72% and 28.84%, the viability at 0.0137 µM (HCT-15; Homo sapiens, HCT-15, 96 h, 0.0137 µM, read-out: HCT-15 Cell viability (%)) was 95.1% and the viability at 0.0412 µM (HCT-15; Homo sapiens, HCT-15, 96 h, 0.0412 µM, read-out: HCT-15 Cell viability (%)) was 77.5%. It also gave a viability at 0.1235 µM (HCT-15; Homo sapiens, HCT-15, 96 h, 0.1235 µM, read-out: HCT-15 Cell viability (%)) of 82.6%, a viability at 0.3704 µM (HCT-15; Homo sapiens, HCT-15, 96 h, 0.3704 µM, read-out: HCT-15 Cell viability (%)) of 80.4% and a viability at 1.1111 µM (HCT-15; Homo sapiens, HCT-15, 96 h, 1.1111 µM, read-out: HCT-15 Cell viability (%)) of 74%. For the same compound, the viability at 3.3333 µM (HCT-15; Homo sapiens, HCT-15, 96 h, 3.3333 µM, read-out: HCT-15 Cell viability (%)) was 56.5%, the viability at 10 µM (HCT-15; Homo sapiens, HCT-15, 96 h, 10.0000 µM, read-out: HCT-15 Cell viability (%)) was 36.6% and the Number of cells (KAP^2D cells [1]; 0 h of treatment) was 41307.05 and 44263.95 and 43595.63 and 48502.24 and 40389.64. For the same compound, the Number of cells (KAP^2D cells [1]; 12 h of treatment) was 90535.27 and 109902.14 and 96345.55 and 78642.86 and 78628.27 and 80020.34, the Number of cells (KAP^2D cells [1]; 24 h of treatment) was 118591.59 and 122111.73 and 126637.09 and 105052.10 and 107245.70 and 108446.50 and the Number of cells (KAP^2D cells [1]; 36 h of treatment) was 147204.34 and 141762.38 and 180655.61 and 129977.80 and 144707.50 and 146373.80. The Number of cells (KAP^2D cells [1]; 48 h of treatment) was 236686.34 and 244575.91 and 256532.61 and 222624.00 and 201311.80 and 207320.10, the Number of cells (KAP^2D cells [1]; 60 h of treatment) was 438717.24 and 412186.50 and 425643.09 and 324012.80 and 330875.70 and 354806.50 and the “Annexin V+ cells” value (KAP^2D cells [2]; 1 d of treatment) was 8.73% and 12.40% and 11.20% and 14.50% and 15.70% and 14.40%. The “Annexin V+ cells” value (KAP^2D cells [2]; 2 d of treatment) was 12.80% and 17.60% and 14.40% and 15.50% and 16.80% and 17.40%, the “Annexin V+ cells” value (KAP^2D cells [2]; 3 d of treatment) was 16.10% and 14.80% and 15.90% and 19.00% and 17.40% and 18.40% and the “Annexin V+ cells” value (KAP^2D cells [2]; 4 d of treatment) was 26.70% and 25.10% and 21.50% and 18.80% and 17.30% and 19.40%. The Plasma concentration ([3]; 0 min of treatment, individual animals) was 0.00 µM, the Plasma concentration ([3]; 45 min of treatment, individual animals) was 7.88 µM and 3.04 µM and 8.11 µM and the Plasma concentration ([3]; 90 min of treatment, individual animals) was 5.28 µM and 6.24 µM. The Plasma concentration ([3]; 180 min of treatment, individual animals) was 4.65 µM and 2.91 µM and 1.27 µM, the Plasma concentration ([3]; 480 min of treatment, individual animals) was 0.69 µM and 0.19 µM and 0.76 µM and the Plasma concentration ([3]; 1440 min of treatment, individual animals) was 0.00 µM. For the same compound, the concentration at 0 min ([3]; mouse, plasma, oral, 20 mg kg^−1, 0 min of treatment, individual animals) was 0 nM, the concentration at 90 min ([3]; mouse, plasma, oral, 20 mg kg^−1, 90 min of treatment, individual animals) was 8.68 µM and the concentration at 1440 min ([3]; mouse, plasma, oral, 20 mg kg^−1, 1440 min of treatment, individual animals) was 0 nM. The AUC [3, 4] was 27.6 µM·h, the half-life [3, 4] was 2 h and the “C^max” value [3, 5] was 6.7 µM. For the same compound, the “t^max” value [3, 5] was 90 min.
